Reference: patent EP4324461A1, “(E)-N-CINAMOYLAMINOALKANOLES WITH MELANOGENESIS INHIBITORY ACTIVITY” (UNIWERSYTET JAGIELLONSKI, priority 2022, dated 2024)

Assays:
[1] = tested on: human reconstructed epidermis model EpiDerm™; assay: Extended skin irritation test in reconstructed human epidermis (EpiDerm), 2 and 7 days; type: cell-based; conditions: 1.0% in 50% PEG (10 µL)
Method: In order to perform extended skin irritation (safety) tests on the reconstructed human epidermis, the exposure time to the tested compounds was extended to 2 and 7 days in the human reconstructed epidermis model EpiDerm™ from MatTek. The epidermis was cultured according to the manufacturer's recommendations, using appropriate multi-well plates and culture media. Solutions of the tested compounds were applied to the epidermis using a positive displacement pipette and distributed using a sterile glass bulb headed Pasteur pipette. […] The epidermis was cultured in an incubator ensuring appropriate humidity, temperature (37 °C) and CO2 concentration (5%). The medium was replaced daily. After an appropriate incubation time, i.e. 2 days or 7 days, the epidermis was rinsed with sterile DPBS and incubated with MTT (Thiazolyl Blue Tetrazolium bromide) solution at 37 °C for 3 hours. After this time, a purple color of formazan was observed, correlated with tissue viability. […] Moreover, in the medium collected after the first 24 hours of EpiDerm epidermis culture, the level of interleukin 1α (Il-1α), which is a mediator of inflammation, was determined. Its level correlates with the unfavorable (irritating) effect of the tested substances on the epidermis. The level of IL-1α was determined using the Cayman Elisa test. […] Table 6. Viability results and results of interleukin 1α concentration measurement in the culture medium in the irritation test in the reconstructed human epidermis model EpiDerm.

Keratinocytes (HaCaT) [2] = assay: Safety, MTT test in keratinocytes; type: cell-based; conditions: 48 hours
Method: (§1) In order to test the safety of the compounds, both normal human cells were used: keratinocytes (HaCaT), fibroblasts (BJ), primary melanocytes that occur in the skin, as well as human cancer cells: the hepatocarcinoma line HepG2 and the neuroblastoma line SH-SY5Y, which are considered a model for the assessment of hepatocytotoxicity and neurocytotoxicity. The concentrations of the tested compounds in the range of 250-100 µM were used in the studies. The cell lines used in the research were purchased from the American Type Culture Collection (ATCC) and were cultured in media recommended by the manufacturer with the addition of FBS and antibiotics in an incubator ensuring appropriate culture conditions, i.e. humidity, temperature and CO2 concentration. Cells were seeded into multiwell plates and incubated with the test compounds for 48 hours. After this time, MTT and LDH tests were performed to assess cell viability. The MTT test is based on the ability to transform the substrate: [3-(4,5-dimethyl-2-thiazolyl)-2,5-diphenyl-2H-tetrazolium bromide into a colored product only by living cells. The absorbance at 570 nm, which corresponds to the absorption maximum for the product, is directly proportional to cell viability. The LDH test is based on testing the activity of the enzyme lactate dehydrogenase in the culture medium, which is released from cells as a result of damage to the cell membrane, e.g. as a result of cell death. Triton X-100 was used as a positive control in the test. The determination is colorimetric, the substrate is transformed by the released enzyme into a colored product, an increase in absorbance indicates a larger amount of the released enzyme, and thus confirms greater damage to cell membranes. Tables 7 and 8 present the results obtained, which correspond to the viability of cells incubated with the compounds in relation to the viability of cells constituting a control sample, i.e. incubated with the solvent (DMSO) at the same concentration as in the case of the groups tested in the MTT test or in relation to the results obtained for the Triton X-100 positive control in the LDH test. They indicate that the compounds are safe at the concentrations tested. Table 7. Viability of tested normal human cell lines: keratinocytes (HaCaT), fibroblasts (BJ) and primary melanocytes after incubation with the tested compounds - determination in the MTT test (% of solvent control ± SD) and LDH (percentage of positive control - Triton X-100.

Keratinocytes (HaCaT) [3] = assay: Safety, LDH test in keratinocytes; type: cell-based; conditions: 48 hours, positive control Triton X-100
Method: as §1

Primary melanocytes = assay: Safety, LDH test in primary melanocytes; type: cell-based; conditions: 48 hours, positive control Triton X-100
Method: as §1

Hepatocarcinoma HepG2 = assay: Safety, MTT test in HepG2; type: cell-based; conditions: 48 hours
Method: as §1

neuroblastoma SH-SY5Y [4] = assay: Safety, MTT test in SH-SY5Y; type: cell-based; conditions: 48 hours
Method: as §1

neuroblastoma SH-SY5Y [5] = assay: Safety, LDH test in SH-SY5Y; type: cell-based; conditions: 48 hours, positive control Triton X-100
Method: as §1

S. typhimurium TA98 = assay: Ames microplate test, TA98; type: cell-based, Salmonella typhimurium;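 further: reference level is the mean solvent-control yellow wells plus SD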
Method: (§2) Bacteria were grown overnight in growth medium.
(§3) Table 9. Ames microplate test results.

S. typhimurium TA100 = assay: Ames microplate test, TA100; type: cell-based, Salmonella typhimurium;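 further: reference level is the mean solvent-control yellow wells plus SD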
Method: as §2, §3

S. typhimurium TA1537 = assay: Ames microplate test, TA1537; type: cell-based, Salmonella typhimurium;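 further: reference level is the mean solvent-control yellow wells plus SD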
Method: as §2, §3

S. typhimurium TA1535 = assay: Ames microplate test, TA1535;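 further: bacteria exposed to compound 90 min at 37 °C, then kept 48 h at 37 °C with indicator medium in 384-well plates, scoring wells that turned yellow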
E. coli WP2 = assay: Ames microplate test, E. coli WP2;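 further: bacteria treated 90 min at 37 °C in 24-well plates, then indicator medium dispensed to 384-well plates and incubated 48 h before yellow-well counting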

O=C(/C=C/c1ccccc1)NCCCCCO [Compound A-133, (2E)-N-(5-hydroxypentyl)-3-phenylprop-2-enamide]
Il-1α in culture medium ([1]; medium after the first 24 hours): 34.99 ± 1.17 pg/mL
Viability [% of control, mean±SD] ([1]; 2 days): 107.19±7.45 % of control
Viability [% of control, mean±SD] ([1]; 7 days): 107.26±21.82 % of control
Keratinocytes (HaCaT) MTT (Keratinocytes (HaCaT) [2]; 100 µM): 101.35±2.17 % of solvent control
Keratinocytes (HaCaT) MTT (Keratinocytes (HaCaT) [2]; 150 µM): 101.40±2.08 % of solvent control
Keratinocytes (HaCaT) MTT (Keratinocytes (HaCaT) [2]; 200 µM): 101.51±2.49 % of solvent control
Keratinocytes (HaCaT) MTT (Keratinocytes (HaCaT) [2]; 250 µM): 95.53±2.80 % of solvent control
Keratinocytes (HaCaT) LDH (Keratinocytes (HaCaT) [3]; 100 µM): 3.23 percentage of positive control
Keratinocytes (HaCaT) LDH (Keratinocytes (HaCaT) [3]; 150 µM): 3.08 percentage of positive control
Keratinocytes (HaCaT) LDH (Keratinocytes (HaCaT) [3]; 200 µM): 6.38 percentage of positive control
Keratinocytes (HaCaT) LDH (Keratinocytes (HaCaT) [3]; 250 µM): 19.58 percentage of positive control
Primary melanocytes LDH (Primary melanocytes; 100 µM): 4.68 percentage of positive control
Primary melanocytes LDH (Primary melanocytes; 150 µM): 7.59 percentage of positive control
Primary melanocytes LDH (Primary melanocytes; 200 µM): 16.71 percentage of positive control
Primary melanocytes LDH (Primary melanocytes; 250 µM): 19.45 percentage of positive control
Hepatocarcinoma HepG2 MTT (Hepatocarcinoma HepG2; 100 µM): 104.96±7.60 % of solvent control
Hepatocarcinoma HepG2 MTT (Hepatocarcinoma HepG2; 150 µM): 100.66±7.39 % of solvent control
Hepatocarcinoma HepG2 MTT (Hepatocarcinoma HepG2; 200 µM): 99.09±1.60 % of solvent control
Hepatocarcinoma HepG2 MTT (Hepatocarcinoma HepG2; 250 µM): 98.92±2.34 % of solvent control
Neuroblastoma SH-SYSY MTT (neuroblastoma SH-SY5Y [4]; 100 µM): 101.50±3.33 % of solvent control
Neuroblastoma SH-SYSY MTT (neuroblastoma SH-SY5Y [4]; 150 µM): 100.75±3.01 % of solvent control
Neuroblastoma SH-SYSY MTT (neuroblastoma SH-SY5Y [4]; 200 µM): 100.62±5.99 % of solvent control
Neuroblastoma SH-SYSY MTT (neuroblastoma SH-SY5Y [4]; 250 µM): 100.41±1.87 % of solvent control
Neuroblastoma SH-SYSY LDH (neuroblastoma SH-SY5Y [5]; 100 µM): 5.33 percentage of positive control
Neuroblastoma SH-SYSY LDH (neuroblastoma SH-SY5Y [5]; 150 µM): 6.93 percentage of positive control
Neuroblastoma SH-SYSY LDH (neuroblastoma SH-SY5Y [5]; 200 µM): 8.49 percentage of positive control
Neuroblastoma SH-SYSY LDH (neuroblastoma SH-SY5Y [5]; 250 µM): 13.32 percentage of positive control
Increase in the number of yellow wells compared to the reference level (S. typhimurium TA98; 0.5 mM, +S9): 0.50
Increase in the number of yellow wells compared to the reference level (S. typhimurium TA98; 0.5 mM, without S9): 0.44
Increase in the number of yellow wells compared to the reference level (S. typhimurium TA98; 1.0 mM, +S9): 0.67
Increase in the number of yellow wells compared to the reference level (S. typhimurium TA98; 1.0 mM, without S9): 0.33
Increase in the number of yellow wells compared to the reference level (S. typhimurium TA98; 2.0 mM, +S9): 1.00
Increase in the number of yellow wells compared to the reference level (S. typhimurium TA98; 2.0 mM, without S9): 0.67
Increase in the number of yellow wells compared to the reference level (S. typhimurium TA100; 0.5 mM, +S9): 0.83
Increase in the number of yellow wells compared to the reference level (S. typhimurium TA100; 0.5 mM, without S9): 0.60
Increase in the number of yellow wells compared to the reference level (S. typhimurium TA100; 1.0 mM, +S9): 0.78
Increase in the number of yellow wells compared to the reference level (S. typhimurium TA100; 1.0 mM, without S9): 1.03
Increase in the number of yellow wells compared to the reference level (S. typhimurium TA100; 2.0 mM, +S9): 0.61
Increase in the number of yellow wells compared to the reference level (S. typhimurium TA100; 2.0 mM, without S9): 0.57
Increase in the number of yellow wells compared to the reference level (S. typhimurium TA1537; 0.5 mM, +S9): 0.18
Increase in the number of yellow wells compared to the reference level (S. typhimurium TA1537; 0.5 mM, without S9): 1.07
Increase in the number of yellow wells compared to the reference level (S. typhimurium TA1537; 1.0 mM, +S9): 0.36
Increase in the number of yellow wells compared to the reference level (S. typhimurium TA1537; 1.0 mM, without S9): 0.54
Increase in the number of yellow wells compared to the reference level (S. typhimurium TA1537; 2.0 mM, +S9): 0.27
Increase in the number of yellow wells compared to the reference level (S. typhimurium TA1537; 2.0 mM, without S9): 0.54
Increase in the number of yellow wells compared to the reference level (S. typhimurium TA1535; 0.5 mM, +S9): 0.47
Increase in the number of yellow wells compared to the reference level (S. typhimurium TA1535; 0.5 mM, without S9): 0.92
Increase in the number of yellow wells compared to the reference level (S. typhimurium TA1535; 1.0 mM, +S9): 0.23
Increase in the number of yellow wells compared to the reference level (S. typhimurium TA1535; 1.0 mM, without S9): 0.55
Increase in the number of yellow wells compared to the reference level (S. typhimurium TA1535; 2.0 mM, +S9): 0.35
Increase in the number of yellow wells compared to the reference level (S. typhimurium TA1535; 2.0 mM, without S9): 1.10
Increase in the number of yellow wells compared to the reference level (E. coli WP2; 0.5 mM, +S9): 0.27
Increase in the number of yellow wells compared to the reference level (E. coli WP2; 0.5 mM, without S9): 0.73
Increase in the number of yellow wells compared to the reference level (E. coli WP2; 1.0 mM, +S9): 0.44
Increase in the number of yellow wells compared to the reference level (E. coli WP2; 1.0 mM, without S9): 0.37
Increase in the number of yellow wells compared to the reference level (E. coli WP2; 2.0 mM, +S9): 0.53
Increase in the number of yellow wells compared to the reference level (E. coli WP2; 2.0 mM, without S9): 1.10
